Assay [1] has as its target T1, Heat shock factor protein 1 (Homo sapiens) (UniProt Q00613).
T1 sequence (whole entry): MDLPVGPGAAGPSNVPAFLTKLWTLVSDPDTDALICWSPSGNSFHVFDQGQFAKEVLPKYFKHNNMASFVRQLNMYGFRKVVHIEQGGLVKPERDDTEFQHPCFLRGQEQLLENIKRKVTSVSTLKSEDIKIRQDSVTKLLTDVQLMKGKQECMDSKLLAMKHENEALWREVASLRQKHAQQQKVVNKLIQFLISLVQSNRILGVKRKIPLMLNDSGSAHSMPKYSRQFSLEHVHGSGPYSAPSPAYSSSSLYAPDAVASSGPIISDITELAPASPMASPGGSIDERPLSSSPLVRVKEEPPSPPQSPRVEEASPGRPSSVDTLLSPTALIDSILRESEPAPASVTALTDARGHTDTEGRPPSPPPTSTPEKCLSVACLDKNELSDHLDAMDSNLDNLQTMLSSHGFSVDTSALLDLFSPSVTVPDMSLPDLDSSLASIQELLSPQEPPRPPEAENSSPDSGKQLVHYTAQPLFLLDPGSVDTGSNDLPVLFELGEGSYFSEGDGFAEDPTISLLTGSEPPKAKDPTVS
The experiment in a line: Reduction of HSP1 stability in human NCI-H460 cells assessed as protein degradation at 10 ug/mL up to 9 hrs by Western blot analysis. It counts as cell-based. (In general: Immunoblotting shows a protein as a band on a membrane.)

Assay [2] has as its target T1, Heat shock factor protein 1 (Homo sapiens). The experiment in a line: Inhibition of HSP1 activity in human NCI-H460 cells assessed as reduction of HSP1 mRNA expression at 1 to 20 uM after 12 hrs by qRT-PCR analysis. It counts as cell-based.
For assay [3], the system named is NCI-H460. The experiment in a line: Induction of apoptosis in human NCI-H460 cells assessed as cleaved PARP and caspase 3 level after 12 hrs. It counts as functional, cell-based.
Assay [4] deals with NCI-H460. The experiment in a line: Cytotoxicity against HSF1 deficient human NCI-H460 cells up to 100 uM after 24 hrs by MTT assay. It counts as functional, cell-based. Background: Tetrazolium assays rely on reduction of a dye to a coloured formazan, in cell work by metabolically active cells.
Assay [5] addresses T1, Heat shock factor protein 1 (Homo sapiens). The experiment in a line: Inhibition of HSP1 activity in human NCI-H460 cells assessed as reduction of hsp70 promoter activity after 12 hrs by luciferase reporter gene assay. It counts as cell-based. A general note: Reporter assays use an easily measured gene product as a stand-in for the process of interest.
The target is the same in assay [6]. The experiment in a line: Inhibition of HSP1 activity in human NCI-H460 cells assessed as reduction of HSP27 mRNA expression at 20 uM up to 24 hrs by qRT-PCR analysis. The assay is classed as cell-based.
For assay [7] the target is unchanged. The experiment in a line: Inhibition of HSP1 activity in human NCI-H460 cells assessed as reduction of HSP25 protein expression at 20 uM by Western blot analysis. It counts as cell-based. The conditions noted are these: TDE = time-dependent effect.
The target is the same in assay [8]. The experiment in a line: Inhibition of HSP1 activity in human NCI-H460 cells assessed as reduction of HSP70 protein expression after 12 hrs by Western blot analysis. The assay is classed as cell-based.
In assay [9] the test system is NCI-H460. The experiment in a line: Induction of apoptosis in human NCI-H460 cells expressing siHSF1 assessed as cleaved PARP and caspase 3 level up to 20 uM after 12 hrs. The assay is classed as functional, cell-based.
Assay [10] concerns NCI-H460. The experiment in a line: Cytotoxicity against human NCI-H460 cells expressing siHSF1 up to 100 uM after 24 hrs by MTT assay. It counts as functional, cell-based.
The target of assay [11] is T1, Heat shock factor protein 1 (Homo sapiens). The experiment in a line: Inhibition of HSP1 activity in human NCI-H460 cells assessed as reduction of HSP70 mRNA expression at 20 uM up to 24 hrs by qRT-PCR analysis. The assay is classed as cell-based.
For assay [12] the target is unchanged. The experiment in a line: Reduction of HSP1 stability in human NCI-H460 cells assessed as protein degradation at 10 uM up to 9 hrs by Western blot analysis in presence of cyclohexamide. It counts as cell-based.
Assay [13] shares this target. The experiment in a line: Inhibition of HSP1 activity in human NCI-H460 cells assessed as reduction of HSP1 mRNA expression at 20 uM up to 24 hrs by qRT-PCR analysis. It counts as cell-based.
For assay [14], the system named is T2, Heat shock factor protein 1 (Homo sapiens), Q00613 [S326E].
T2 sequence (whole entry): T1 sequence (whole entry) with S326E
The experiment in a line: Reduction of HSP1 phosphorylated at S326E mutant stability in human NCI-H460 cells up to 7.5 hrs by Western blot analysis in presence of cyclohexamide. The assay is classed as cell-based.

Assay [15] deals with T1, Heat shock factor protein 1 (Homo sapiens). The experiment in a line: Inhibition of HSP1 activity in human NCI-H460 cells assessed as reduction of HSP70 protein expression at 20 uM by Western blot analysis. The assay is classed as cell-based. To be noted: TDE = time-dependent effect.
Assay [16] has the same target. The experiment in a line: Inhibition of HSP1 activity in human NCI-H460 cells assessed as reduction of HSP70 mRNA expression at 1 to 20 uM after 12 hrs by qRT-PCR analysis. It counts as cell-based.
The target is the same in assay [17]. The experiment in a line: Inhibition of HSP1 activity in human NCI-H460 cells assessed as reduction of HSP25 protein expression after 12 hrs by Western blot analysis. The assay is classed as cell-based.
For assay [18], the system named is T3, Heat shock factor protein 1 (Homo sapiens), Q00613 [S326A].
T3 sequence (whole entry): T1 sequence (whole entry) with S326A
The experiment in a line: Reduction of HSP1 dephosphorylated at S326A mutant stability in human NCI-H460 cells up to 7.5 hrs by Western blot analysis in presence of cyclohexamide. The assay is classed as cell-based.

For assay [19], the target named is T1, Heat shock factor protein 1 (Homo sapiens). The experiment in a line: Induction of HSP1 dephosphorylation at S230, S303/307, and S326 in human NCI-H460 cells after 24 hrs by Western blot analysis. It counts as cell-based.
Assay [20] has as its system NCI-H460. The experiment in a line: Induction of apoptosis in human NCI-H460 cells assessed as cleaved PARP and caspase 3 level at 20 uM. The assay is classed as functional, cell-based. To be noted: TDE = time-dependent effect.
Assay [21] addresses T1, Heat shock factor protein 1 (Homo sapiens). The experiment in a line: Inhibition of HSP1 activity in human NCI-H460 cells assessed as reduction of HSP1 protein expression after 12 hrs by Western blot analysis. It counts as cell-based.
Assay [22] shares this target. The experiment in a line: Inhibition of HSP1 activity in human NCI-H460 cells assessed as reduction of HSP1 protein expression at 20 uM by Western blot analysis. It counts as cell-based. To be noted: TDE = time-dependent effect.
For assay [23] the target is unchanged. The experiment in a line: Inhibition of HSP1 activity in human NCI-H460 cells assessed as reduction of HSP27 mRNA expression at 1 to 20 uM after 12 hrs by qRT-PCR analysis. It counts as cell-based.
For assay [24], the system named is NCI-H460. The experiment in a line: Cytotoxicity against human NCI-H460 cells up to 100 uM after 24 hrs by MTT assay. The assay is classed as functional, cell-based.
The target of assay [25] is T4, Heat shock factor protein 1 (Mus musculus) (UniProt P38532).
T4 sequence (whole entry): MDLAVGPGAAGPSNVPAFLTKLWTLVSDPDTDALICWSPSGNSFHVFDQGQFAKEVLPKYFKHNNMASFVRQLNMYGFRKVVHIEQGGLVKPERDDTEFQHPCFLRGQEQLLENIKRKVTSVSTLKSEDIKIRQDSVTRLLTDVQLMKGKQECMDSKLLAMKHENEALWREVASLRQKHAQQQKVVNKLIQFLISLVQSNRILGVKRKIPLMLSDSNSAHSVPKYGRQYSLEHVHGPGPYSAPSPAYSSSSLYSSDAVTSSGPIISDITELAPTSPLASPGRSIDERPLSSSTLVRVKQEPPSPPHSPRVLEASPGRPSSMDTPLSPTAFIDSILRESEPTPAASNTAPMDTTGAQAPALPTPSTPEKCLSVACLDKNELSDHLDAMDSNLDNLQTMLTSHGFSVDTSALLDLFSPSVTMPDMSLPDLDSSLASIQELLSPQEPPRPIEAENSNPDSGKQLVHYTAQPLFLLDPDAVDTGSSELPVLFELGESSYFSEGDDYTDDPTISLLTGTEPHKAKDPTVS
The experiment in a line: Inhibition of HSP1 activity in mouse MEF assessed as reduction of hsp70 promoter activity at 5 to 100 uM after 12 hrs by luciferase reporter gene assay.

The target in assay [26] is T4, Heat shock factor protein 1 (Mus musculus). The experiment in a line: Inhibition of HSP1 activity in mouse MEF assessed as reduction of hsp25 promoter activity at 5 to 100 uM after 12 hrs by luciferase reporter gene assay.
Assay [27] addresses T1, Heat shock factor protein 1 (Homo sapiens). The experiment in a line: Inhibition of HSP1 activity in human NCI-H460 cells assessed as reduction of hsp25 promoter activity after 12 hrs by luciferase reporter gene assay. It counts as cell-based.
Assay [28] deals with NCI-H460. The experiment in a line: Induction of apoptosis in human NCI-H460 cells assessed as cyclin D and cyclin E level after 12 hrs. It counts as functional, cell-based.
Assay [29] deals with NCI-H460. The experiment in a line: Induction of apoptosis in human NCI-H460 cells assessed as cyclin D and cyclin E level at 20 uM. It counts as functional, cell-based. To be noted: TDE = time-dependent effect.

Our source for the Activity and inhibition values is ChEMBL document CHEMBL3286220, “2,4-Bis(4-hydroxybenzyl)phenol inhibits heat shock transcription factor 1 and sensitizes lung cancer cells to conventional anticancer modalities” (J Nat Prod, 2014).

Residue numbers refer to the chain shown, from its start. Activity calls are given as the source filed them. The calls are words filed in the database; no cut-off is given here.

With `C[C@@H]1C[C@@H]([C@H](O)CC2CC(=O)NC(=O)C2)C(=O)[C@@H](C)C1`, the outcome in assay [1] was Active.
`Oc1ccc(Cc2ccc(O)c(Cc3ccc(O)cc3)c2)cc1`: the inhibition entry in assay [2], in assay [13], in [25] and in assay [26] was “inactive” in each case. In addition, the Activity result in the assay with NCI-H460 [3] is “Dose-dependent effect”; in assay [19], “Dose-dependent effect”; with NCI-H460 [20], “tde”; in the assay on NCI-H460 [28] it was “Dose-dependent effect”; in the assay on NCI-H460 [29], “tde”. In addition, the outcome (in the assay on NCI-H460 [4]; with NCI-H460 [9]; in [12]; in assay [14]; in [18]; in the assay with NCI-H460 [24]) was Active. Besides, the inhibition result in assay [5] was “Dose-dependent effect”; in assay [7], “tde”; in assay [8], “Dose-dependent effect”; in assay [15] it was “tde”; in assay [17], “Dose-dependent effect”; in [21], “Dose-dependent effect”. In addition, the inhibition result in assay [22] is “tde”; in assay [27], “Dose-dependent effect”. Besides, the inhibition entry in [6], in assay [11], in assay [16] and in [23] was “Active” in each case. For the same compound, in the assay on NCI-H460 [10], the outcome was inactive.
